Laboratory results as given in article PMC4730408, “Genistein and Glyceollin Effects on ABCC2 (MRP2) and ABCG2 (BCRP) in Caco-2 Cells” (International Journal of Environmental Research and Public …, 2015).

Target: MRP2 (ABCC2, multidrug resistance protein 2) (Homo sapiens, UniProt Q92887)
Assay: calcein retention (calcein-AM) in Caco-2 cells; CDF transport across Caco-2 monolayers
Type: cell-based

Sequence of MRP2 (ABCC2, multidrug resistance protein 2) (Q92887 whole entry): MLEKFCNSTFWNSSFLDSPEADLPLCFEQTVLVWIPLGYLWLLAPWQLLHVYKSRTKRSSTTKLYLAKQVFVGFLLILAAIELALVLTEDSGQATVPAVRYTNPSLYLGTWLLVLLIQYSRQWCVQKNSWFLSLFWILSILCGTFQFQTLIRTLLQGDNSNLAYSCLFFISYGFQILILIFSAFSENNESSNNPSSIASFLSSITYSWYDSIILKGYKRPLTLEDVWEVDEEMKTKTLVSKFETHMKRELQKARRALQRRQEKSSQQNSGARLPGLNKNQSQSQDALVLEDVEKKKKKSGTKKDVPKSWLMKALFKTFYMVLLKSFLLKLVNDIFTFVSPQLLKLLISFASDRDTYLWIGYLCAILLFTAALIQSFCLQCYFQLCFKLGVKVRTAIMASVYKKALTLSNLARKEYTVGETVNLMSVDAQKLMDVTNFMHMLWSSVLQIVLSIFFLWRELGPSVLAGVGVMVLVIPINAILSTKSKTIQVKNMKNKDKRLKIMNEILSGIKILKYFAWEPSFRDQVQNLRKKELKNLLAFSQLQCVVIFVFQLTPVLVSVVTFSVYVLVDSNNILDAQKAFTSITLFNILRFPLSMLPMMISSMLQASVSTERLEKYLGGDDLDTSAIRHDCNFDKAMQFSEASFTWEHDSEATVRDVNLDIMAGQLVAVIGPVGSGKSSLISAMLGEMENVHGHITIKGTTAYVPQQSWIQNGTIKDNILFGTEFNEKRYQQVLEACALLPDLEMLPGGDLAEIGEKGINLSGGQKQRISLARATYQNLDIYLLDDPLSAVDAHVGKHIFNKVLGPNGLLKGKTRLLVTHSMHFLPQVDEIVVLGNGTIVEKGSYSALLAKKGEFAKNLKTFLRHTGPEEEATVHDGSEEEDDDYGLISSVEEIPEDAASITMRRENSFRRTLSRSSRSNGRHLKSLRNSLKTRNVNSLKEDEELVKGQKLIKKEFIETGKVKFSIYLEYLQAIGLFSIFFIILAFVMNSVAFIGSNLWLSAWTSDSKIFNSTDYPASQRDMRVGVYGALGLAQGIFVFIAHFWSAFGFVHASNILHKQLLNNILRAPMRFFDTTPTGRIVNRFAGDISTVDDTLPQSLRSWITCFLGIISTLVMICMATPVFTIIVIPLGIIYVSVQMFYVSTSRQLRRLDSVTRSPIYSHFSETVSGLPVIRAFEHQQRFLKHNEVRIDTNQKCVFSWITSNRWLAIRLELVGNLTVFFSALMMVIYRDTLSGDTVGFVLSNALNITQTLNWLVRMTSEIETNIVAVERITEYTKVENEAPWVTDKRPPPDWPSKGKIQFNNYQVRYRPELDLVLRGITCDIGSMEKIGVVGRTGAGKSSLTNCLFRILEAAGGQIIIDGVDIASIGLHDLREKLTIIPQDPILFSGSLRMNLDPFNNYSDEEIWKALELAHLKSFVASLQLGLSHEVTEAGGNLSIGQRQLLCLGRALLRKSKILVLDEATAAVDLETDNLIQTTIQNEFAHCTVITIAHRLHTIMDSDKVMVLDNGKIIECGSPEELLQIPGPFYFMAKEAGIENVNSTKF

`CN(C)C(=O)CCSC(SCCC(=O)O)c1cccc(/C=C/c2ccc3ccc(Cl)cc3n2)c1` (stereo not shown) [MK-571] was tested, and the EC50 was 20 µM.
